One may read the Kd as the free concentration of one partner at which half of the binding sites on the other are occupied at equilibrium, for simple one-to-one binding. Low values mean a tighter complex, high ones a looser complex.

This test addresses interleukin-1 receptor-associated kinase 4 (IRAK4) (Homo sapiens, UniProt Q9NWZ3). Put plainly: biochemical.

interleukin-1 receptor-associated kinase 4 (IRAK4), sequence (Q9NWZ3 whole entry): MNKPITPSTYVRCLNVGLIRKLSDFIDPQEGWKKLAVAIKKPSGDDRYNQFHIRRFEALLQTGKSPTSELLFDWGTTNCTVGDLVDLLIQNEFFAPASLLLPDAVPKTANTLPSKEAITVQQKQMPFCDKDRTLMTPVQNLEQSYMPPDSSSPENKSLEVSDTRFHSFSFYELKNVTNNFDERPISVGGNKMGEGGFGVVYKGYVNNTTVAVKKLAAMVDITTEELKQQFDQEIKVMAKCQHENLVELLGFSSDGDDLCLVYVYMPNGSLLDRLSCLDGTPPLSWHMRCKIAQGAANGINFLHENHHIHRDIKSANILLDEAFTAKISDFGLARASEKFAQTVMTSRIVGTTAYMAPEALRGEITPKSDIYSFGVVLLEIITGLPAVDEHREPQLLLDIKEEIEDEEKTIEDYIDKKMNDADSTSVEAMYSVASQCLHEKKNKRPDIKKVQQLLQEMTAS

As to `CN(C)C` [TMA, trimethylamine], the Kd is 14 nM. In other words, the double-digit nanomolar range.
